From US20040063662A1, “Selenophene anti-tumor agents” (priority 1996, published 2004)

Legend:
[1] = system: CAKI-1; assay: NCI human tumor cell panel: CAKI-1 (Renal Cancer); format: cell-based
[2] = system: HL-60(TB); assay: NCI human tumor cell panel: HL-60(TB) (Leukemia); format: cell-based
[3] = system: TK-10; assay: NCI human tumor cell panel: TK-10 (Renal Cancer); format: cell-based
[4] = system: UACC-257; assay: NCI human tumor cell panel: UACC-257 (Melanoma); format: cell-based
[5] = system: RXF-393; assay: NCI human tumor cell panel: RXF-393 (Renal Cancer); format: cell-based
[6] = system: SK-MEL-2; assay: NCI human tumor cell panel: SK-MEL-2 (Melanoma); format: cell-based
[7] = system: IGROV1; assay: NCI human tumor cell panel: IGROV1 (Ovarian Cancer); format: cell-based
[8] = system: COLO 205; assay: NCI human tumor cell panel: COLO 205 (Colon Cancer); format: cell-based
[9] = system: HCC-2998; assay: NCI human tumor cell panel: HCC-2998 (Colon Cancer); format: cell-based
[10] = system: SNB-75; assay: NCI human tumor cell panel: SNB-75 (CNS Cancer); format: cell-based
[11] = system: KM12; assay: NCI human tumor cell panel: KM12 (Colon Cancer); format: cell-based
[12] = system: SK-MEL-5; assay: NCI human tumor cell panel: SK-MEL-5 (Melanoma); format: cell-based
[13] = system: NCI-H460; assay: NCI human tumor cell panel: NCI-H460 (Non-Small Cell Lung Cancer); format: cell-based
[14] = system: M14; assay: NCI human tumor cell panel: M14 (Melanoma); format: cell-based
[15] = system: MCF7/ADR-RES; assay: NCI human tumor cell panel: MCF7/ADR-RES (Breast Cancer); format: cell-based
[16] = system: MCF7; assay: NCI human tumor cell panel: MCF7 (Breast Cancer); format: cell-based
[17] = system: SK-MEL-28; assay: NCI human tumor cell panel: SK-MEL-28 (Melanoma); format: cell-based
[18] = system: T-47D; assay: NCI human tumor cell panel: T-47D (Breast Cancer); format: cell-based; conditions: T47D
[19] = system: panel of sixty different human tumor cell lines; assay: NCI human tumor cell panel: whole panel (mean graph summary)
[20] = system: K-562; assay: NCI human tumor cell panel: K-562 (Leukemia); format: cell-based
[21] = system: MDA-MB-231/ATCC; assay: NCI human tumor cell panel: MDA-MB-231/ATCC (Breast Cancer); format: cell-based; conditions: Homo sapiens, MDA-MB-231, MDA-MB-231/ATCC
[22] = system: SF-268; assay: NCI human tumor cell panel: SF-268 (CNS Cancer); format: cell-based
[23] = system: SR; assay: NCI human tumor cell panel: SR (Leukemia); format: cell-based
[24] = system: OVCAR-5; assay: NCI human tumor cell panel: OVCAR-5 (Ovarian Cancer); format: cell-based
[25] = system: A498; assay: NCI human tumor cell panel: A498 (Renal Cancer); format: cell-based
[26] = read-out: Log10 GI50 (converted)
[27] = read-out: Log10 TGI (converted)

Structure (SMILES): OCc1ccc(-c2ccc(-c3ccc[se]3)[se]2)[se]1 [compound 675246]
- GI50 ([1]; CAKI-1, read-out: Log10 GI50 (converted)): 5.37 µM
- IC (TGI) ([1]; CAKI-1, read-out: Log10 TGI (converted)): 18.6 µM
- GI50 [2, 26]: 5.75 µM
- IC (TGI) ([2]; read-out: Log10 TGI): > 100 µM
- GI50 ([3]; TK-10, read-out: Log10 GI50 (converted)): 1910 nM
- IC (TGI) ([3]; TK-10, read-out: Log10 TGI (converted)): 10.7 µM
- GI50 ([4]; UACC-257, read-out: Log10 GI50 (converted)): 50.1 nM
- IC (TGI) ([4]; UACC-257, read-out: Log10 TGI (converted)): 0.224 µM
- GI50 ([5]; RXF-393, read-out: Log10 GI50 (converted)): 20.9 nM
- IC (TGI) ([5]; RXF-393, read-out: Log10 TGI (converted)): 0.0912 µM
- GI50 ([6]; SK-MEL-2, read-out: Log10 GI50 (converted)): 9.12 µM
- IC (TGI) ([6]; SK-MEL-2, read-out: Log10 TGI (converted)): 25.7 µM
- GI50 ([7]; IGROV-1, IGROV1, read-out: Log10 GI50 (converted)): 53.7 nM
- IC (TGI) ([7]; IGROV-1, IGROV1, read-out: Log10 TGI (converted)): 2.24 µM
- GI50 ([8]; COLO 205, read-out: Log10 GI50 (converted)): 1000 nM
- IC (TGI) ([8]; COLO 205, read-out: Log10 TGI (converted)): 4.07 µM
- GI50 ([9]; HCC-2998, read-out: Log10 GI50 (converted)): 1230 nM
- IC (TGI) ([9]; HCC-2998, read-out: Log10 TGI (converted)): 11.7 µM
- GI50 ([10]; SNB-75, read-out: Log10 GI50 (converted)): 3.89 µM
- IC (TGI) ([10]; SNB-75, read-out: Log10 TGI (converted)): > 100 µM
- GI50 ([11]; KM12, read-out: Log10 GI50 (converted)): 4.17 µM
- IC (TGI) ([11]; KM12, read-out: Log10 TGI (converted)): 17 µM
- GI50 ([12]; SK-MEL-5, read-out: Log10 GI50 (converted)): 2630 nM
- IC (TGI) ([12]; SK-MEL-5, read-out: Log10 TGI (converted)): 8.91 µM
- GI50 ([13]; NCI-H460, read-out: Log10 GI50 (converted)): 324 nM
- IC (TGI) ([13]; NCI-H460, read-out: Log10 TGI (converted)): 3.63 µM
- GI50 ([14]; M14, read-out: Log10 GI50 (converted)): 8.71 µM
- IC (TGI) ([14]; M14, read-out: Log10 TGI (converted)): 24 µM
- GI50 [15, 26]: 5.13 µM
- IC (TGI) [15, 27]: 46.8 µM
- GI50 ([16]; MCF7, read-out: Log10 GI50 (converted)): 145 nM
- IC (TGI) ([16]; MCF7, read-out: Log10 TGI (converted)): 3.8 µM
- GI50 ([17]; SK-MEL-28, read-out: Log10 GI50 (converted)): 7.41 µM
- IC (TGI) ([17]; SK-MEL-28, read-out: Log10 TGI (converted)): 21.9 µM
- GI50 [18, 26]: 3.8 µM
- IC (TGI) [18, 27]: 15.1 µM
- GI50 ([19]; Homo sapiens, read-out: Log10 GI50, MG_MID, mean over the panel (converted)): 1660 nM
- CC50 ([19]; Homo sapiens, read-out: Log10 LC50, MG_MID, mean over the panel (converted)): 51.3 µM
- Log10 TGI, MG_MID ([19]; mean over the panel): −4.91
- Log10 TGI, Delta ([19]; whole panel): 2.14
- Log10 TGI, Range ([19]; whole panel): 3.04
- GI50 ([20]; K562, K-562, read-out: Log10 GI50 (converted)): 372 nM
- IC (TGI) ([20]; K562, K-562, read-out: Log10 TGI (converted)): 7.59 µM
- GI50 [21, 26]: 4.37 µM
- IC (TGI) [21, 27]: 33.9 µM
- GI50 ([22]; SF-268, read-out: Log10 GI50 (converted)): 4.07 µM
- IC (TGI) ([22]; SF-268, read-out: Log10 TGI (converted)): > 100 µM
- GI50 [23, 26]: 6.61 µM
- IC (TGI) [23, 27]: > 100 µM
- GI50 ([24]; OVCAR-5, read-out: Log10 GI50 (converted)): 182 nM
- IC (TGI) ([24]; OVCAR-5, read-out: Log10 TGI (converted)): 25.1 µM
- GI50 ([25]; A498, read-out: Log10 GI50 (converted)): 38.9 nM
- IC (TGI) ([25]; A498, read-out: Log10 TGI (converted)): 0.166 µM
